Assay results published in ChEMBL document CHEMBL1201862, “PubChem BioAssay data set” (2004).
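96-well plates; 48 h exposure; 5 concentrations. Endpoints by linear interpolation between flanking doses. Not reached: highest tested concentration assigned. Abbreviation: GI50, concentration required for 50% inhibition of growth.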 The source made the active and inactive calls. Cut-off read from the data, not from the text of the source: active = GI50 up to about 1.1 µM and inactive = higher.

Assays:
Assay in all cases: DTP human tumour cell line panel, 48 h
A498 = test system: A498
A549 = test system: A549
HCT-116 = test system: HCT-116
IGROV-1 = test system: IGROV-1
K562 = test system: K562
LOX IMVI = test system: LOX IMVI
MCF7 = test system: MCF7
NCI-H460 = test system: NCI-H460
NCI/ADR-RES = test system: NCI/ADR-RES
OVCAR-3 = test system: OVCAR-3
SF-539 = test system: SF-539
SK-MEL-28 = test system: SK-MEL-28
SK-MEL-2 = test system: SK-MEL-2
SK-MEL-5 = test system: SK-MEL-5
SK-OV-3 = test system: SK-OV-3
SNB-75 = test system: SNB-75
SR = test system: SR
UACC-257 = test system: UACC-257
UO-31 = test system: UO-31
RPMI-8226 = test system: RPMI-8226

Measured: GI50

NC1CC2C3CCC2C1C3=O (stereo not given)
inactive: A498 > 100 µM | A549 > 100 µM | HCT-116 > 100 µM | IGROV-1 > 100 µM | K562 > 100 µM | LOX IMVI > 100 µM | MCF7 > 100 µM | NCI-H460 > 100 µM | NCI/ADR-RES > 100 µM | OVCAR-3 > 100 µM | SF-539 > 100 µM | SK-MEL-28 > 100 µM | SK-MEL-2 > 100 µM | SK-MEL-5 > 100 µM | SK-OV-3 > 100 µM | SNB-75 4.76 µM | SR > 100 µM | UACC-257 > 100 µM | UO-31 > 100 µM

C[C@H](CCC(=O)O)[C@H]1CC[C@H]2[C@@H]3[C@@H](O)C[C@@H]4C[C@H](O)CC[C@]4(C)[C@H]3CC[C@]12C [URSODIOL]
inactive: A498 > 100 µM | A549 > 100 µM | HCT-116 > 100 µM | IGROV-1 > 100 µM | K562 72.8 µM | LOX IMVI > 100 µM | MCF7 > 100 µM | NCI-H460 > 100 µM | NCI/ADR-RES > 100 µM | RPMI-8226 97.9 µM | SF-539 > 100 µM | SK-MEL-28 > 100 µM | SK-MEL-2 > 100 µM | SNB-75 99.1 µM | SR 25.1 µM | UACC-257 > 100 µM | UO-31 70 µM

CCOC(=O)N1c2c(c3ccccc3n2C(=O)OCC)C(=O)C(OC)N1C(=O)OCC (stereo not given)
inactive: A498 25.4 µM | A549 32.7 µM | HCT-116 26.5 µM | IGROV-1 26.5 µM | K562 21.1 µM | LOX IMVI 18.1 µM | MCF7 34.3 µM | NCI-H460 36.1 µM | NCI/ADR-RES 22.9 µM | OVCAR-3 30.2 µM | RPMI-8226 23.9 µM | SF-539 24.6 µM | SK-MEL-28 24.2 µM | SK-MEL-2 16 µM | SK-MEL-5 21.8 µM | SK-OV-3 28.4 µM | SR 16.9 µM | UACC-257 29.4 µM | UO-31 33.7 µM

CC(C)OC(=O)c1ccc(NCC2=CC(=O)C=CC2=O)cc1Cl
inactive: A498 16.3 µM | A549 31.9 µM | HCT-116 19.3 µM | IGROV-1 11.5 µM | K562 2.73 µM | LOX IMVI 10.5 µM | MCF7 14.9 µM | NCI-H460 19.2 µM | NCI/ADR-RES 7.93 µM | OVCAR-3 10.4 µM | SF-539 12 µM | SK-MEL-28 17.2 µM | SK-MEL-2 31.7 µM | SK-MEL-5 18.7 µM | SK-OV-3 31.4 µM | SNB-75 15.8 µM | SR 1.58 µM | UACC-257 16.1 µM | UO-31 3.29 µM

CCOC(=O)c1cnc2oc3ccc(O)cc3c2c1C
inactive: A498 98.2 µM | A549 > 100 µM | HCT-116 > 100 µM | K562 > 100 µM | LOX IMVI > 100 µM | MCF7 > 100 µM | NCI-H460 > 100 µM | NCI/ADR-RES 41.6 µM | OVCAR-3 33.9 µM | RPMI-8226 > 100 µM | SF-539 39.8 µM | SK-MEL-28 > 100 µM | SK-MEL-2 > 100 µM | SK-MEL-5 69.3 µM | SK-OV-3 53.6 µM | SR 74 µM | UACC-257 > 100 µM

O=c1[nH]c2ccc(O)cc2o1
inactive: A498 > 100 µM | A549 > 100 µM | HCT-116 > 100 µM | IGROV-1 > 100 µM | K562 > 100 µM | MCF7 > 100 µM | NCI-H460 > 100 µM | NCI/ADR-RES > 100 µM | OVCAR-3 > 100 µM | SF-539 > 100 µM | SK-MEL-28 > 100 µM | SK-MEL-5 > 100 µM | SK-OV-3 > 100 µM | SNB-75 42.7 µM | SR > 100 µM | UACC-257 > 100 µM | UO-31 > 100 µM

Cc1cc2c(O)c(c1)CN(CC(=O)O)Cc1cc(C)cc(c1O)CN(CC(=O)O)Cc1cc(C)cc(c1O)CN(CC(=O)O)C2
inactive: A498 > 100 µM | A549 > 100 µM | HCT-116 > 100 µM | K562 > 100 µM | LOX IMVI > 100 µM | MCF7 > 100 µM | NCI-H460 > 100 µM | NCI/ADR-RES > 100 µM | OVCAR-3 > 100 µM | RPMI-8226 > 100 µM | SF-539 > 100 µM | SK-MEL-28 > 100 µM | SK-MEL-2 > 100 µM | SK-MEL-5 > 100 µM | SK-OV-3 > 100 µM | SNB-75 > 100 µM | SR > 100 µM | UACC-257 > 100 µM | UO-31 > 100 µM

Cc1nc(N)c(N2CCN(S(=O)(=O)N(Cc3ccccc3)Cc3ccccc3)CC2)c(O)n1
inactive: A498 > 10 µM | A549 82.6 µM | HCT-116 28.1 µM | K562 > 100 µM | LOX IMVI > 100 µM | MCF7 72.3 µM | NCI-H460 40.6 µM | NCI/ADR-RES 71.3 µM | OVCAR-3 20.6 µM | RPMI-8226 > 100 µM | SF-539 23.2 µM | SK-MEL-28 17.6 µM | SK-MEL-2 55.2 µM | SNB-75 10.9 µM | SR > 100 µM | UACC-257 25.4 µM | UO-31 > 100 µM

Cc1cc(C2CC(O)C(CO)O2)c(F)cc1F (stereo not given)
inactive: A498 > 100 µM | A549 > 100 µM | HCT-116 > 100 µM | IGROV-1 > 100 µM | K562 > 100 µM | LOX IMVI > 100 µM | MCF7 > 100 µM | NCI-H460 > 100 µM | NCI/ADR-RES > 100 µM | OVCAR-3 > 100 µM | SF-539 > 100 µM | SK-MEL-28 > 100 µM | SK-OV-3 > 100 µM | SNB-75 > 100 µM | SR > 100 µM | UACC-257 > 100 µM | UO-31 > 100 µM

Sc1nnc(Cc2ccc(Cl)cc2)[nH]1
inactive: A498 57.4 µM | A549 44.1 µM | HCT-116 51.4 µM | IGROV-1 44.5 µM | K562 48.8 µM | LOX IMVI 38.1 µM | MCF7 51.9 µM | NCI-H460 50.8 µM | NCI/ADR-RES 42.1 µM | OVCAR-3 > 100 µM | SF-539 66.4 µM | SK-MEL-28 > 100 µM | SK-MEL-2 > 100 µM | SK-MEL-5 39.6 µM | SK-OV-3 68.5 µM | SNB-75 33.2 µM | SR 58.6 µM | UACC-257 60.5 µM | UO-31 32.4 µM

CCCCCC1CC=CC(=O)O1 (stereo not given)
inactive: A498 26.1 µM | A549 6.81 µM | HCT-116 2.04 µM | IGROV-1 2.94 µM | K562 5.4 µM | LOX IMVI 7.62 µM | MCF7 6.52 µM | NCI-H460 11 µM | NCI/ADR-RES 5.73 µM | OVCAR-3 10.5 µM | RPMI-8226 1.91 µM | SF-539 1.32 µM | SK-MEL-28 4.51 µM | SK-MEL-2 6.84 µM | SK-MEL-5 12.4 µM | SK-OV-3 7.53 µM | SR 3.39 µM | UACC-257 14.1 µM | UO-31 8.89 µM

CC/C=C\C/C=C\C/C=C\CCCCCCCC(=O)OC(COC(=O)CCCCCCCCCCCCCCCCC)COC1OC(CO)C(O)C(O)C1O (stereo not given)
inactive: A498 > 25 µM | A549 > 25 µM | HCT-116 > 25 µM | IGROV-1 12.3 µM | K562 18.6 µM | LOX IMVI > 25 µM | MCF7 > 25 µM | NCI-H460 > 25 µM | NCI/ADR-RES 23.6 µM | OVCAR-3 7.74 µM | RPMI-8226 8.57 µM | SK-MEL-28 > 25 µM | SK-MEL-2 > 25 µM | SK-MEL-5 > 25 µM | SK-OV-3 > 25 µM | SNB-75 > 25 µM | SR > 25 µM | UACC-257 > 25 µM | UO-31 > 25 µM

Cc1cc(C)n2nc3nc(N)c(C#N)c(-c4ccccc4)c3c2n1
inactive: A498 > 100 µM | A549 > 100 µM | HCT-116 > 100 µM | IGROV-1 > 100 µM | K562 > 100 µM | LOX IMVI > 100 µM | MCF7 > 100 µM | NCI-H460 > 100 µM | NCI/ADR-RES > 100 µM | OVCAR-3 > 73.6 µM | RPMI-8226 > 100 µM | SF-539 > 100 µM | SK-MEL-28 > 100 µM | SK-MEL-2 > 100 µM | SK-MEL-5 > 80.2 µM | SK-OV-3 > 100 µM | SR > 100 µM | UACC-257 > 100 µM | UO-31 > 100 µM

CNC1C(O)C(OC2C(N)CC(N)C(OC3OC(C(C)O)C(O)C(O)C3N)C2O)OCC1(C)O (stereo not given)
inactive: A498 > 100 µM | A549 > 100 µM | HCT-116 > 100 µM | IGROV-1 > 100 µM | K562 > 100 µM | LOX IMVI > 100 µM | MCF7 > 100 µM | NCI-H460 > 100 µM | NCI/ADR-RES > 100 µM | OVCAR-3 > 100 µM | RPMI-8226 > 100 µM | SF-539 > 100 µM | SK-MEL-28 > 100 µM | SK-MEL-2 > 100 µM | SK-MEL-5 > 100 µM | SK-OV-3 > 100 µM | SNB-75 > 100 µM | SR > 100 µM | UO-31 > 100 µM

CCOC(=O)/C=C/[C@@H](CC)O[Si](C(C)C)(C(C)C)C(C)C
inactive: A498 > 100 µM | A549 > 100 µM | HCT-116 > 100 µM | IGROV-1 > 100 µM | K562 > 100 µM | LOX IMVI > 100 µM | MCF7 90.2 µM | NCI-H460 > 100 µM | NCI/ADR-RES > 100 µM | OVCAR-3 > 100 µM | RPMI-8226 50.6 µM | SF-539 > 100 µM | SK-MEL-2 > 100 µM | SK-MEL-5 > 100 µM | SK-OV-3 > 100 µM | SNB-75 > 100 µM | SR 74.6 µM | UACC-257 67.3 µM | UO-31 > 100 µM
